This test has as its target T1, DR1Dw1 (Homo sapiens, UniProt P01903+P01911, A100R/D57E/F55L/F60I/F76Y/I96L/L162R/M171V/P40L/Q125E/R42F/V115G/Y59C).
T1 construct: these are Drosophila transmembrane DR; made in house; host or cells: Drosophila (cells)
Description: Inhibition assay: inhibition of biotinylated RMBP 90-102 peptide binding to MHC class II DR1. Here is the method:
For direct binding assays, optimal concentrations of affinity purified DR1Dwl (1.25 nM) or DR4Dw4 (10 nM) are incubated with serial dilutions of biotinylated rat myelin basic protein (RMBP) 90-102 in PBS (phosphate buffered saline) containing 0.75% octyl glucoside, pH 6.5, in 96-well polypropylene plates for 16 to 20 h at 37° C. In studies optimizing the assay it was determined that only between 5 to 10% of the DR molecules are capable of binding added peptide. Therefore, the effective concentration of DR1Dw1 and DR4Dw4 was approximately 0.125 and 1.0 nM, respectively. […] The DR-peptide complexes (50 μL) are transferred to wells of a 96-well EIA plate precoated with LB3.1, the monoclonal antibody which recognizes the DR alleles of MHC Class II, and blocked with PBS with fetal calf serum (FCS). An additional 50 μL of 50 mM Tris, pH 7.0, containing 0.75% octyl glucoside is added to each well and the mixture incubated overnight at 4° C. Excess peptide is removed by washing with PBS containing 0.05% Tween 20 (Polyoxyethylene sorbitan monolaurate) and 0.01% NAN3. Europium-labeled streptavidin (Wallac Inc.) is added and incubated overnight. After washing, complexes are measured by the addition of Enhance™ buffer, the tradename for 0.1 M acetate phthalate buffer, pH 3.2, containing 0.1% Triton X-100, tradename for polyoxyethylene ethers and other surface active compounds of Union Carbide Chemicals and Plastics Co., Inc. (particularly, a non-ionic surfactant for recovery of membrane components under non-denaturing conditions) 15 µM 2-naphthoyltrifluoroacetone, and 50 μM tri-N-octylphosphine oxide, which buffer releases the chelated europium from streptavidin and forms a highly fluorescent micellar solution. The resultant fluorescence is measured using a fluorescent plate reader (e.g., DELPHIA, Wallac, Inc.). The data are analyzed using a four-parameter logistical curve […] program (e.g., SigmaPlot) that calculates the concentration of biotinylated peptide giving a half-maximal signal (ED50).
The inhibition assay format is identical to the procedure described above with the exception that the unlabeled antagonist is serially diluted and incubated with constant concentrations of biotinylated RMBP 90-102 (0.3 nM for DR1Dw1 or 0.9 nM for DR4Dw4) and the MHC class II proteins. The concentration of unlabeled compound that prevents 50% of the labeled peptide from binding is the IC50 value. The concentration of the biotinylated RMBP 90-102 in each assay is experimentally determined to be […] one-sixth of its measured ED50 to assure the inhibition was primarily measuring the binding characteristics of the competitor.
In particular, a protocol for carrying out the inhibition assay is given below.
Preparation of Antibody Plate
Add 115 μL of 5 μg/mL LB3.1 in 50 mM Tris HCl pH 9.6/azide to each well of a Costar EIA plate. Incubate the plate overnight at 4° C.
Wash the plate 4 times with water/0.05% Tween-20/azide. Add 200 μL of PBS/5% FCS/azide for 1 hour at 4° C. to block the plate. The plate may be held at this point for later use or used immediately.
Flip out the block. It is not necessary to wash the plate. At 50 μL of load buffer (50 mM Tris HCl, pH 8.0 0.75% octylglucoside). Add to this volume 50 μL of the reaction mix from day 2, step 3 below.
Preparation of Reaction Mixture
(1) Add the following to a polypropylene round bottom 96-well plate such as a Costar #3794:
(A) Diluent (Ca Mg free PBS adjusted to pH 6.5 with 0.1 M KH2 PO4/0.75% octylglucoside/azide).81 μL
(B) Competitor at 16.6 times the final concentration in diluent or diluent alone. 9 μL
(C) Biotinylated RMBP (BRMBP) 90-102; 1.5 nM for DR1 or 4.5 nM for DR4 (These are 5 × stocks of final concentrations of 0.3 nM/DR1 or 0.9 nM/DR4)
(D) 6.25 nM DR1Dw1 or 50 nM DR4Dw4 (these are Drosophila transmembrane DR) (This is a 5× stock of the final concentration of 1.25 or 10 nM.) 30 μL Add the DR last and mix well at this time 150 μL
(2) Incubate at 37° C. for 20 min and 5 hours. […]

[1] abbreviates: 20 min incubation at 37° C., 0.3 nM biotinylated RMBP 90-102, 1.25 nM DR1Dw1, pH 6.5, read-out: IC50 /μM @ 20'.
[2] abbreviates: 5 hours incubation at 37° C., 0.3 nM biotinylated RMBP 90-102, 1.25 nM DR1Dw1, pH 6.5, read-out: IC50 /μM @ 5 h.

Read-outs that look alike come from different tables or passages of the source.

For the substance “cHx((CH3)CHCH2 CH2 NH)-(R)-γ-Lactam-Nva-Leu-NH2 [Example 12]”, the IC50 reads like this: under setting [1], 0.65 µM; under setting [2], 5.6 µM.
As to “cHx((CH3)C=CHCH2)-(R)-γ-Lactam-Nva-Leu-NH2 [Example 11]”, the IC50 runs as follows: under setting [1], 0.76 µM; under setting [2], 5.2 µM.
For the substance “cHx(CH23 -α-(3-Azidopropyl)-(R)-γ-Lactam-Nva-NHNBu(COOEt) [Example 52]”, the IC50 is 0.16 µM under setting [1] and 0.62 µM under setting [2].
Take “[4H]-Naphthyl-CH2 -(R)-γ-Lactam-Nva-Leu-NH2 [Example 50]”: the IC50 by setting is: under setting [1], 2.5 µM; under setting [2], 23.5 µM.
Regarding “EtOCO-Phe-(S)-γ-Lactam-Nva-Leu-NH2 [Example 21]”, the IC50 amounted to 3.1 µM under setting [1] and 10.5 µM under setting [2].
The like results for “cHx(CH2)3 -α-(3-Aminopropyl)-(R)-γ-Lactam-Nva-NHNBu(COOEt) [Example 53]” were, in that order, 0.68 µM and 3.1 µM.
Turning to “cHp(CH2)3 -(R)-γ-Lactam-Nva-Leu-NH2 [Example 14]”, the IC50 worked out at 0.34 µM under setting [1] and 2.9 µM under setting [2].
In the same order, the values of “cHx(CH2)3 -α-(3-Hydroxypropyl)-(R)-γ-Lactam-Nva-NHNBu(COOEt) [Example 51]” are 0.16 µM and 0.63 µM.
In the same order, the values of “EtOCO-Phe-(S)-δ-Lactam-L-Nva-Leu-NH2 [27(61)]” are 3.4 µM and 10 µM.
Regarding “cHx(CH2)3 -α-(3-Hydroxypropyl)-(R)-γ-Lactam-Nva-Leu-NH2 [Example 33]”, the IC50 by setting is: under setting [1], 0.13 µM; under setting [2], 0.86 µM.
For the substance “cHx(CH2)3 -α-propyl-(R)-γ-Lactam-Nva-NHNBu(COOEt) [Example 35]”, the IC50 reads like this: under setting [1], 0.25 µM; under setting [2], 2 µM.
For “cHp(CH2)3 -α-Propyl-(R)-γ-Lactam-Nva-Leu-NH2 [Example 32]”, the IC50 turned out to be 0.15 µM under setting [1] and 1.4 µM under setting [2].
Take “cHx(CH2)3 -α-(3-guanidinopropyl)-(R)-γ-Lactam-Nva-NHNBu(COOEt) [Example 54]”: the IC50 runs as follows: under setting [1], 0.21 µM; under setting [2], 0.93 µM.
